Assay results from patent US11464821B2, “Composition for reducing cancer cachexia or weight loss caused by anticancer drug therapy or radiation therapy comprising ginseng extract having increased ginsenoside Rg3 and Rh2” (GREEN CROSS WELLBEING CORPORATION, priority 2013, dated 2022).
Like-named read-outs stand apart in the source and are kept apart here. Marks after values point to notes of the source that are not given here.

How the values were obtained:
Format in all cases: in vivo, Balb/c-nu/nu mice
[1] = test system: animal models xenografted with HT-29 colon cancer cell line; test: Running wheel activity (voluntary motor activity), test example 1; settings: HT-29 xenografted mice, 100 mg/kg oral, every day for 4 weeks
Protocol: (§1) 6-wk-old Balb/c-nu/nu female mice weighing 20±2 g were obtained from Orient Inc., and housed in animal rooms under a temperature of 23±1° C., relative humidity of 55±15%, and 12-hour light/dark illumination cycle. […] After acclamation for 1 week, 100 μl of HT-29 cells (5×10^6 cells/mouse) were subcutaneously injected into the flank of the Balb/c nu/nu mouse, and the mice were observed by the naked eyes. The mice were randomized into groups when the tumor size reached 150 mm^3, and then drug administration was initiated. Voluntary motor activity (running wheel activity) and forced motor activity (swimming test) were measured after the administration of anticancer drug and drugs was completed, and the amount of glycogen synthesized in the muscle was assayed through an ELISA kit after the tissue taken from the femoral region on the final date of autopsy was homogenized. Running wheel activity (Running distance=meter/10 min)
The voluntary motor activity was measured as the parameter of cancer-related fatigue (CRF) through running wheel activity. The number of wheels ran for a total of 10 min on 300Ø wheel was counted, and running distance was calculated. *Running distance=circumference (30 cm×3.14)×number of wheels/10 min […]

[2] = test system: animal models xenografted with HT-29 colon cancer cell line
Protocol: as §1
(§2) All the examples and comparative examples were diluted in phosphate buffered saline (PBS) according to the dosage, and compulsorily administered to the animals using needle for oral administration (Sonde). The dosage was diluted in PBS to 100 mg/kg of body weight, and the dosage was calculated such that 100 μl/20 g was administered depending on the weight measured on the day of administration. Test materials were administered at the same time once per day, at 10 AM, for 4 weeks, for the examples and comparative examples.
Evaluation was conducted in the same conditions as in test example 1, except that all the examples and comparative examples were compared in the conditions of treatment with an anticancer drug. The treatment with 5-FU as an anticancer drug was conducted at 30 mg/kg three times per week.

[3] = test system: animal models xenografted with HT-29 colon cancer cell line; test: Swimming test (forced motor activity), test example 1; settings: HT-29 xenografted mice, 100 mg/kg oral, every day for 4 weeks
Protocol: as §1
A transparent temperature-constant water bath (500 mm×500 mm×400 mm), which maintained the designated temperature and water level, was filled with warm water (23±1° C.), and then the animals were subjected to forced swimming (FS). The swimming time immediately after total exhaustion was recorded. […]

[4] = test system: animal models xenografted with HT-29 colon cancer cell line; test: Glycogen synthesized in femoral muscle (ELISA kit) under radiation treatment, test example 3
Protocol: as §1, §2
Evaluation was conducted in the same conditions as in test example 1, except that all the examples and comparative examples were compared in the conditions of radiation treatment. The radiation treatment was conducted at 10 Gy three times per week.

SMILES | Running distance for 10 min (meter/10 min) [1] | Incerase (%) in running distance for 10 min, compared with control ([1]; vs xenograft control) [%] | Mean Muscle Glycogen ([2]; HT-29 xenografted mice, co-administered with 5-FU 30 mg/kg i.p. 3 days per week, 100 mg/kg oral daily for 4 weeks, femoral muscle) [mg/g] | Increase (%) in glycogen synthesis, compared with control ([2]; co-administered with 5-FU 30 mg/kg i.p. 3 days per week, 100 mg/kg oral daily for 4 weeks, vs 5-FU control) [%] | amount of glycogen synthesis compared with control group administered with the anticancer drug (in words) ([2]; co-administered with 5-FU for 4 weeks) | Total swimming time ([3]; forced swimming to exhaustion, water 23±1° C.) [s] | Increase (%) in swimming time, compared with control ([3]; vs xenograft control) [%] | Mean Muscle Glycogen ([4]; HT-29 xenografted mice, with radio therapy 10 Gy 3 days per week, oral daily for 4 weeks, femoral muscle) [mg/g] | amount of glycogen synthesis compared with control group treated with radiation (in words) ([4]; combined with radiation treatment for 4 weeks) | Increase (%) in glycogen synthesis, compared with control ([4]; with radio therapy 10 Gy 3 days per week, oral daily for 4 weeks, vs radio therapy control) [%] | Mean Muscle Glycogen (mg/g), 5-FU control ([2]; mouse, in vivo) [mg/g] | reduction of amount of glycogen synthesis compared with the normal groups ([2]; mouse, in vivo) [%]
NC(=O)C[S+]([O-])C(c1ccccc1)c1ccccc1 (stereo not drawn) [Comparative example 12, Modafinil] | 80.1 ± 1.9** meter/10 min | 52.6 | 4.3 ± 0.5 | 18.4 | did not show any great change | 731.8 ± 60.1 | 63.5 | 3.9 ± 0.2 | did not show any great change | 7.9 | – | –
O=c1[nH]cc(F)c(=O)[nH]1 [Example 5-FU, 5-fluorouracil] | – | – | – | – | – | – | – | – | – | – | 3.6 ± 0.34 | 51.4
